The text below walks through data of patent US20090221567A1, “MUSCARINIC RECEPTOR AGONISTS, COMPOSITIONS, METHODS OF TREATMENT THEREOF, AND PROCESSES FOR PREPARATION THEREOF 177” (ASTRAZENECA AB, priority 2008, published 2009).

In one experiment the target is T1, hM1 (human Muscarinic receptor subtype 1) (Homo sapiens, UniProt P11229).
T1 construct: expressed in transfected cells; host or cells: CHO cells (Chinese hamster ovary cells, ATCC)
T1 sequence (P11229 1-460): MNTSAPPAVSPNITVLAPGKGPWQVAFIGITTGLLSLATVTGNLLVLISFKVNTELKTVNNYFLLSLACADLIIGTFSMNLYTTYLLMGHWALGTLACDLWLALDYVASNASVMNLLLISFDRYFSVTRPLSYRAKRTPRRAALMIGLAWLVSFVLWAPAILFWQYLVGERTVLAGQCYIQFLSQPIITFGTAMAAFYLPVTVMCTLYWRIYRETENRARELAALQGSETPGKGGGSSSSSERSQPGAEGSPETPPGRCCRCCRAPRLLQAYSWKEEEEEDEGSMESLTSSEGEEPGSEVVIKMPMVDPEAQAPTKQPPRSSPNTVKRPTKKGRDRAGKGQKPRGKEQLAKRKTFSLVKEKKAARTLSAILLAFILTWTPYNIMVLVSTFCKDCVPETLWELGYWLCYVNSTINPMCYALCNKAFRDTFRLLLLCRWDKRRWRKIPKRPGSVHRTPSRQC
The experiment can be described thus: Human M1 calcium mobilization FLIPR assay. The experiment is classed as cell-based. The conditions noted are these: read-out: hM1 EC50 values. The method, then: (§1) The compound activity in the present invention (EC50 or IC50) is measured using a 384 plate-based imaging assay that monitors drug induced intracellular Ca^2+ release in whole cells. Activation of hM1 (human Muscarinic receptor subtype 1, gene bank access NM_000738), rM1 (rat Muscarinic receptor subtype 1, gene bank access NM_080773), hM3 (human Muscarinic receptor subtype 3, gene bank access NM_000740NM_000740) and hM5 (human Muscarinic receptor subtype 5, gene bank access NM_0121258), receptors expressed in CHO cells (Chinese hamster ovary cells, ATCC) is quantified in a Molecular Devices FLIPR IITM instrument as an increase in fluorescent signal. Inhibition of hM3 and hM5 by compounds is determined by the decrease in fluorescent signal in response to 2 nM acetylcholine activation.
(§2) Prior to experiment, the cell culture medium is removed from the plates by inversion. […] Plates are incubated at 37° C. for 60 minutes prior to start the experiment. The incubation is terminated by washing the cells four times in assay buffer, leaving a residual 25 μl buffer per well. Cell plates are then transferred to the FLIPR, ready for compound additions.
(§3) The day of experiment, acetylcholine and compounds are diluted in assay buffer in three-fold concentration range (10 points serial dilution) for addition by FLIPR instrument. For all calcium assays, a baseline reading is taken for 10 seconds followed by the addition of 12.5 μl of compounds, resulting in a total well volume of 37.5 μl. Data is collected every second for 60 pictures and then every 6 seconds for 20 pictures prior to the addition of agonist. For hM3 and hM5, before agonist addition, a second baseline reading is taken for 10 seconds followed by the addition of 12.5 μl of agonist or buffer, producing a final volume of 50 μl. After agonist stimulation, the FLIPR continues to collect data every second for 60 pictures and then every 6 seconds for 20 pictures. The fluorescence emission is read using filter 1 (emission 510-570 nm) by the FLIPR on board CCD camera.
(§4) Calcium mobilization output data are calculated as the maximal relative fluorescence unit (RFU) minus the minimal value for both compound and agonist reading frame (except for hM1 and rM1 using only the maximal RFU). Data are analyzed using sigmoidal fits of a non-linear curve-fitting program (XLfit version 4.2.2 Excel add-in version 4.2.2 build 18 math 1Q version 2.1.2 build 18). All pEC50 and pIC50 values are reported as arithmetic means±standard error of mean of ‘n’ independent experiments.
In general terms: A change in cytosolic calcium serves as a functional read-out for many receptors and channels.
Consider `Cc1ccccc1C(=O)N1CCC(N2CCC(N3C(=O)OC[C@H]4CCCC[C@@H]43)CC2)CC1` [(4aS,8aS)-1-[1-[1-(2-methylbenzoyl)-4-piperidyl]-4-piperidyl]-4a,5,6,7,8,8a-hexahydro-4H-benzo[d][1,3]oxazin-2-one], for which the EC50 (as a rule, the concentration that produces a half-maximal response) is greater than 2890 nM.
Still for that read-out and setting: then `CC(C)OC(=O)N1CCC(C)(N2CCC(N3C(=O)CN[C@H]4CCCC[C@@H]43)CC2)CC1` [isopropyl 4-[4-[(4aS,8aS)-2-oxo-3,4,4a,5,6,7,8,8a-octahydroquinoxalin-1-yl]-1-piperidyl]-4-methyl-piperidine-1-carboxylate], with greater than 2890 nM.
With `CC(C)(C)OC(=O)N1CCC(N2CCC(N3C(=O)CO[C@H]4CCCC[C@@H]43)CC2)CC1` [tert-butyl 4-[4-[(4aS,8aS)-3-oxo-4a,5,6,7,8,8a-hexahydrobenzo[b][1,4]oxazin-4-yl]-1-piperidyl]piperidine-1-carboxylate], the EC50 was greater than 2890 nM.
On to `CC(C)OC(=O)N1CC[C@H](N2CCC(N3C(=O)CO[C@H]4CCCC[C@@H]43)CC2)C1` [isopropyl (3S)-3-[4-[(4aS,8aS)-3-oxo-4a,5,6,7,8,8a-hexahydrobenzo[b][1,4]oxazin-4-yl]-1-piperidyl]pyrrolidine-1-carboxylate], for which the EC50 was greater than 2890 nM.
As to `CC(C)(C)OC(=O)N1CCC(N2CCC(N3C(=O)OC[C@@H]4CCCC[C@H]43)CC2)CC1` [tert-butyl 4-[4-[(4aR,8aR)-2-oxo-4a,5,6,7,8,8a-hexahydro-4H-benzo[d][1,3]oxazin-1-yl]-1-piperidyl]piperidine-1-carboxylate], the EC50 is greater than 2890 nM.
Regarding `COC(=O)N1CCC(N2CCC(N3C(=O)OC[C@H]4CCCC[C@@H]43)CC2)CC1` [methyl 4-[4-[(4aS,8aS)-2-oxo-4a,5,6,7,8,8a-hexahydro-4H-benzo[d][1,3]oxazin-1-yl]-1-piperidyl]piperidine-1-carboxylate], the EC50 is greater than 2890 nM.
As for `CC(C)OC(=O)N1CCC(C)(N2CCC(N3C(=O)CO[C@H]4CCCC[C@@H]43)CC2)CC1` [isopropyl 4-[4-[(4aS, 8aS)-3-oxo-4a,5,6,7,8,8a-hexahydrobenzo[b][1,4]oxazin-4-yl]-1-piperidyl]-4-methyl-piperidine-1-carboxylate], the EC50 was greater than 2890 nM.

The same experiment, now with this note: receptor expressed in CHO cells, intracellular Ca2+ release; read-out: hM1 EC50.
Regarding `CC(C)OC(=O)N1CCC(N2CCC(N3C(=O)OC[C@H]4CCCC[C@@H]43)CC2)CC1` [Example 16, Propan-2-yl 4-[4-[(1S,6S)-9-oxo-8-oxa-10-azabicyclo[4.4.0]dec-10-yl]-1-piperidyl]piperidine-1-carboxylate], the concentration giving a half-maximal response (EC50) stood at 220 nM.
With `COc1ccsc1C(=O)N1CCC(N2CCC(N3C(=O)OC[C@H]4CCCC[C@@H]43)CC2)CC1` (racemic) [Example 17, (±)(trans)-10-[1-[1-(3-methoxythiophene-2-carbonyl)-4-piperidyl]-4-piperidyl]-8-oxa-10-azabicyclo[4.4.0]decan-9-one], the EC50 came out at 270 nM.
Turning to `CCOC(=O)N1CCC(N2CCC(N3C(=O)NC[C@H]4CCCC[C@@H]43)CC2)C1` (stereo partly drawn) [Example 5, ethyl 3-[4-[(4aR,8aS)-2-oxo-3,4,4a,5,6,7,8,8a-octahydroquinazolin-1-yl]-1-piperidyl]pyrrolidine-1-carboxylate], the EC50 came to 31 nM.

For another experiment, the target named is T2, hM3 (human Muscarinic receptor subtype 3) (Homo sapiens, UniProt P20309).
T2 construct: expressed in transfected cells; host or cells: CHO cells (Chinese hamster ovary cells, ATCC)
T2 sequence (P20309 whole entry): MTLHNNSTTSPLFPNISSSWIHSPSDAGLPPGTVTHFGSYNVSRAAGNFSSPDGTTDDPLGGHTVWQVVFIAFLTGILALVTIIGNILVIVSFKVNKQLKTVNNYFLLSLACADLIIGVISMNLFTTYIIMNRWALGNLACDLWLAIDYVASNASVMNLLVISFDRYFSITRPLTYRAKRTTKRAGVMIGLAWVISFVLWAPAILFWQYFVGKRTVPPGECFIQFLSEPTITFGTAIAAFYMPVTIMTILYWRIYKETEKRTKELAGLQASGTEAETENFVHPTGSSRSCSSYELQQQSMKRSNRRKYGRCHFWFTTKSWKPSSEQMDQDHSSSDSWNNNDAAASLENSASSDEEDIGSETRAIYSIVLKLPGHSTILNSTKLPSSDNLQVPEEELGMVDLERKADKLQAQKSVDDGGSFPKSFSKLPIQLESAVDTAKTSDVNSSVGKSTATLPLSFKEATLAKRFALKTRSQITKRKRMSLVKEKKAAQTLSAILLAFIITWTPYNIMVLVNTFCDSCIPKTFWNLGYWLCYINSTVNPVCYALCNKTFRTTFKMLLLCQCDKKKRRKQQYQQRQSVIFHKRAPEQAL
The experiment can be described thus: Human M3 calcium mobilization FLIPR assay. In kind it is cell-based. The conditions noted are these: receptor expressed in CHO cells, intracellular Ca2+ release. The method, then:
as §1, §2, §3, §4
As for `COc1ccsc1C(=O)N1CCC(N2CCC(N3C(=O)OC[C@H]4CCCC[C@@H]43)CC2)CC1` (racemic) [Example 17, (±)(trans)-10-[1-[1-(3-methoxythiophene-2-carbonyl)-4-piperidyl]-4-piperidyl]-8-oxa-10-azabicyclo[4.4.0]decan-9-one], the EC50 is greater than 40000 nM.

The next experiment deals with T3, hM5 (human Muscarinic receptor subtype 5) (Homo sapiens, UniProt P08912).
T3 construct: expressed in transfected cells; host or cells: CHO cells (Chinese hamster ovary cells, ATCC)
T3 sequence (P08912 1-532): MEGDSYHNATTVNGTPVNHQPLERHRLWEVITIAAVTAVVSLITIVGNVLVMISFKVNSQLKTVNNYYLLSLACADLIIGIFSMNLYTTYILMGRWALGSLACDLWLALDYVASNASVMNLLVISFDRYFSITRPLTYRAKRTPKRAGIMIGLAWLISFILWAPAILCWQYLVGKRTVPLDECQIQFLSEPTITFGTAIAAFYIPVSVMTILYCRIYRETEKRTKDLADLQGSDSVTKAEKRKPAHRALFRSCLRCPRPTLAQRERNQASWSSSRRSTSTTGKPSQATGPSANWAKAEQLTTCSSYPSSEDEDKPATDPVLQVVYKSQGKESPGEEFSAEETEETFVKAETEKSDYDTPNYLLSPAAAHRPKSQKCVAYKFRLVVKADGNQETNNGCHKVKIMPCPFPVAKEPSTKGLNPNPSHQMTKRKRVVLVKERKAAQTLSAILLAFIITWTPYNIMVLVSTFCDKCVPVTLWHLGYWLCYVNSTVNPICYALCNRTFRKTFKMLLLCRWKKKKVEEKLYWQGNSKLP
The experiment can be described thus: Human M5 calcium mobilization FLIPR assay. The experiment is classed as cell-based. The conditions noted are these: receptor expressed in CHO cells, intracellular Ca2+ release. The method, then:
as §1, §2, §3, §4
With `COc1ccsc1C(=O)N1CCC(N2CCC(N3C(=O)OC[C@H]4CCCC[C@@H]43)CC2)CC1` (racemic) [Example 17, (±)(trans)-10-[1-[1-(3-methoxythiophene-2-carbonyl)-4-piperidyl]-4-piperidyl]-8-oxa-10-azabicyclo[4.4.0]decan-9-one], the 50% effective concentration (EC50) was greater than 40000 nM.
